Data: patent US20250163072A1, “MACROCYCLIC COMPOUNDS FOR THE TREATMENT OF CANCER” (Hoffmann-La Roche Inc., priority 2021, published 2025)

Columns and labels:
KRAS G12C-BRAF complex = KRAS G12C-BRAF complex (Homo sapiens (Human), UniProt P01116+P62937, G12C); test: KRAS-BRAF with CYPA (50 nM) interaction assay (TR-FRET), G12C; assay type: binding; details: GMPPNP loaded 6His-KRAS, GST-BRAF RBD
Summary of the method: (§1)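 Buffer 25 mM HEPES pH 7.4, 100 mM NaCl, 5 mM MgCl2, 10 μM GMPPNP, 0.1% BSA; final 50 nM tagless CYPA, 6.25 nM GMPPNP-loaded 6His-KRAS mutant, 1 nM GST-BRAF RBD. Compounds 16-point 3-fold series from 10 μM, 3 h; anti-6His-XL665/anti-GST-Tb added, 1.5 h; 665/615 nm ratio decrease versus DMSO.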

[1] = target: KRAS G12V binding to BRAF (Homo sapiens (Human), UniProt P01116+P62937, G12V); test: KRAS-BRAF with CYPA (50 nM) interaction assay (TR-FRET), G12V; details: GMPPNP loaded 6His-KRAS, GST-BRAF RBD
Chain of KRAS G12V binding to BRAF (P01116-2 other isoform, or with tags, fused parts or gaps G12V): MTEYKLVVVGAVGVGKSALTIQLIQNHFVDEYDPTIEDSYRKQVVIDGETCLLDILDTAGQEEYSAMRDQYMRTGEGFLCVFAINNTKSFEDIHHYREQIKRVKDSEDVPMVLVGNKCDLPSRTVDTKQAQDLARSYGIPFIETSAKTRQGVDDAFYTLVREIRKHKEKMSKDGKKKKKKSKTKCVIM
Chain of KRAS G12V binding to BRAF (P62937 whole entry): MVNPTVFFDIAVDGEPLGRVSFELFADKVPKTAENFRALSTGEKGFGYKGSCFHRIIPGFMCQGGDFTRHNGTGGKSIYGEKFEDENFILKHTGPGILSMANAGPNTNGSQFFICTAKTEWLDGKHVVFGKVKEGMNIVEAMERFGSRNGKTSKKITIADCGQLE
Summary of the method: as §1

[2] = test system: KRAS G12C in NCI-H358 cells; test: pERK inhibition assay, NCI-H358; assay type: cell-based, human; details: Homo sapiens, 4 hours incubation
Summary of the method: (§2)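 NCI-H358, AGS and SW620 cells in RPMI-1640/10% FBS were plated overnight, then exposed to compound (0.5% DMSO final) for 4 h. After fixation and permeabilization, phospho-ERK was quantified by in-cell ELISA (HRP secondary, TMB, OD450); IC50 from a 4-parameter sigmoidal fit.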

KRAS G12D in AGS cells = test: pERK inhibition assay, AGS; assay type: cell-based, human; details: Homo sapiens, 4 hours incubation
Summary of the method: as §2

KRAS G12V in SW620 = test: pERK inhibition assay, SW620; assay type: cell-based, human; details: Homo sapiens, SW-620, SW620 cells, 4 hours incubation
Summary of the method: as §2

NCI-H358 cells = test: Cell viability assay, NCI-H358; assay type: cell-based, human; details: Homo sapiens, NCI-H358, 72 hours, Cell Counting Kit-8, read-out: G12C IC50
Summary of the method: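 Cells were plated at 5,000 (NCI-H358) or 2,000 (AGS, SW620) per well and incubated overnight. They were then treated with compound in 0.5% DMSO for 72 h. Viability was read with CCK-8 as OD450 minus OD650 after 2 h, and IC50 came from a 4-parameter sigmoidal fit.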

[3] = Human hepatocytes stability assay; assay type: in vitro ADME
Summary of the method: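 Compound at 1 μM incubated with cryopreserved suspension hepatocytes (1×10^6 cells/mL) in supplemented Williams' E Medium at 37° C, 5% CO2, with shaking. Reactions quenched with methanol at 2, 10, 20, 40, 60 and 120 min; parent depletion followed by LC-MS/MS.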

Chain of KRAS G12C-BRAF complex (P01116-2 other isoform, or with tags, fused parts or gaps G12C): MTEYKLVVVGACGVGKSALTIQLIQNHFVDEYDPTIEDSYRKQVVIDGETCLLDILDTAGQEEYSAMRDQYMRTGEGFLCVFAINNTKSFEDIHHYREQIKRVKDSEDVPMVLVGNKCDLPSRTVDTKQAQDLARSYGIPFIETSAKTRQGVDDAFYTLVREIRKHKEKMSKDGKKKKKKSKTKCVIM
Chain of KRAS G12C-BRAF complex (P62937 whole entry): as the sequence (P62937 whole entry) above

With `CO[C@@H](C)c1ncc(N2CCOCC2)cc1-c1c2c3cc(ccc3n1CC(F)(F)F)-c1csc(n1)C[C@H](NC(=O)[C@H](C(C)C)N(C)C(=O)[C@H]1CCN(C(=O)[C@H](F)Cl)C1)C(=O)N1CCC[C@H](N1)C(=O)OCC(C)(C)C2` (atropisomer, axis not shown; (M)) [Example 25, (3S)-1-[(2R)-2-chloro-2-fluoro-acetyl]-N-[(1S)-1-[[(7S,13S)-(20M)-20-[2-[(1S)-1-methoxyethyl]-5-morpholino-3-pyridyl]-17,17-dimethyl-8,14-dioxo-21-(2,2,2-trifluoroethyl)-15-oxa-4-thia-9,21,27,28-tetrazapentacyclo[17.5.2.12,5.19,13.022,26]octacosa-1(25),2,5(28),19,22(26),23-hexaen-7-yl]carbamoyl]-2-methyl-propyl]-N-methyl-pyrrolidine-3-carboxamide] the IC50 (KRAS G12C-BRAF complex) was 32 nM, the IC50 [1] was > 10000 nM and the IC50 [2] was 1 nM. The IC50 (KRAS G12D in AGS cells) was 13 nM, the IC50 (KRAS G12V in SW620) was 3 nM and the IC50 (NCI-H358 cells) was < 0.6 nM. For the same compound, the “CL_hep (Human)” value ([3]; 1 μM compound, human hepatocytes 1×10^6 cells/mL) was 9.8 mL/min/kg and the “Clearance Category” value ([3]; human hepatocytes) was “medium (16.24<CL_hep (mL/min/kg)>6.96 is medium clearance)”.
